Drawing on patent publication US12134610B2, “Somatostatin subtype-2 receptor (SST2R) targeted therapeutics and uses thereof” (priority 2022, dated 2024), this text covers EC50 for 15 compounds.

Starred links: 1 amine or outer side, 2 acyl side, 3 side chain; linkers in the order of their positions; H or OH if unused. Non-standard residues stand in square brackets, D forms with d. Residues, ends and D or L forms follow the SMILES beside them. *: point of attachment. X4 = Cc1cc(F)cc(-c2cnc(NCCNC(=O)CCOCCOCCOCCOCCC(=O)*)c(-c3nc4ccc(Cl)cc4[nH]3)c2N2CCC(N)CC2)c1; X1 = Cc1cc(F)cc(-c2cnc(NCCNC(=O)CCOCCC(=O)*)c(-c3nc4ccc(Cl)cc4[nH]3)c2N2CCC(N)CC2)c1; Dolaproine = CO[C@@H]([C@@H]1CCCN1)[C@@H](C)C(=O)O; Dil = CC[C@H](C)[C@H](NC)[C@@H](CC(=O)O)OC; PABC = O=C(OCc1ccc(N[*:1])cc1)[*:2]; X2 = C[C@@H](N*)[C@@H](O)c1ccccc1; Cit = NC(=O)NCCC[C@H](N)C(=O)O; NMeV = CN[C@H](C(=O)O)C(C)C

For orientation: EC50 means the concentration needed to bring the measured effect to its halfway point.

Common to all, as to type: cell-based
For one assay, the target named is T1, SST2 (Homo sapiens, UniProt P30874).
T1 construct: host or cells: PathHunter CHO-K1 SST2 cells
Put plainly: PathHunter CHO-K1 SST2 internalization assay. The following applies: PathHunter CHO-K1 SST2, 90 min; read-out: Internalization EC50. The procedure, abridged:
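IC50 comes from four-parameter curves on background-corrected duplicates of Beta-Glo luminescence, read after 60 min at room temperature in the dark. Before that, CHO-K1 SST2 internalization cells (48 h post-seeding) received SMDC as eleven threefold dilutions, 10 uM highest final, for 90 min at 37 C.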

The test system of assay [1] is NCI-H524 (ATCC) human small cell lung cancer cells. Particulars: 2 h. The procedure, abridged:
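CellTiter-Glo luminescence after a 2 h SMDC pulse (top dose 1 uM, 2-fold dilutions, 11 points), medium wash, then 70 h recovery. Cells were seeded at 5,000/well and dosed 24 h later. % inhibition vs control gave IC50 via four-parameter fit.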

The target of assay [2] is T2, human somatostatin receptor subtype 2 (Homo sapiens, UniProt P30874).
T2 construct: expressed in transfected cells
Description: Functional cAMP assay for SSTR2 agonists (HTRF) in CHO-K1 cells. The following applies: CHO-K1 cells stably expressing human SST2, 20 min; read-out: hSST2 cAMP Avg EC50. The procedure, abridged:
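Agonism scored as loss of NKH477 (1.6 μM)-driven cAMP, with IBMX present, after 20 min, 37° C. exposure of stably transfected CHO-K1 cells to compound dilutions (typically 0-10,000 nM). Lysates read by time-resolved FRET; cAMP interpolated from standard curve and EC50 derived.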

T1 sequence (P30874 whole entry): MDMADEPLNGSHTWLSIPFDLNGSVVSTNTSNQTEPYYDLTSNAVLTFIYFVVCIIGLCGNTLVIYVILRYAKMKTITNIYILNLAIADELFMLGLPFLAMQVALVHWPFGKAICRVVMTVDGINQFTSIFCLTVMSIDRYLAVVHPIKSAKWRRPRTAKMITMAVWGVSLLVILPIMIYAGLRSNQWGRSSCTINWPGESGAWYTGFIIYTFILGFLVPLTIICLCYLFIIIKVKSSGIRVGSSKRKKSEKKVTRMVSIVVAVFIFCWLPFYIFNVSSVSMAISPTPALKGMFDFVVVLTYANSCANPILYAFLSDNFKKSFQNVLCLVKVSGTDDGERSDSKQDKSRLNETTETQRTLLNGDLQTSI
T2 sequence (P30874 whole entry): as above

Regarding `CC[C@H](C)[C@@H]([C@@H](CC(=O)N1CCC[C@H]1[C@H](OC)[C@@H](C)C(=O)N[C@H](C)[C@@H](O)c1ccccc1)OC)N(C)C(=O)[C@@H](NC(=O)[C@H](C(C)C)N(C)C(=O)OCc1ccc(NC(=O)[C@H](CCCNC(N)=O)NC(=O)[C@@H](NC(=O)CN2CCN(CC(=O)O)CCN(CC(=O)NCCOCCOCCOCCOCCC(=O)NCCNc3ncc(-c4cc(C)cc(F)c4)c(N4CCC(N)CC4)c3-c3nc4ccc(Cl)cc4[nH]3)CC2)C(C)C)cc1)C(C)C` [Compound 39], the values for the 50% effective concentration (EC50) (at SST2; in assay [1]; in assay [2]) were 18.7 nM, 35.9 nM and 0.12 nM, respectively.

`CC[C@H](C)[C@@H]([C@@H](CC(=O)N1CCC[C@H]1[C@H](OC)[C@@H](C)C(=O)N[C@@H](Cc1ccccc1)C(=O)O)OC)N(C)C(=O)[C@@H](NC(=O)[C@H](C(C)C)N(C)C(=O)OCc1ccc(NC(=O)[C@H](CCCNC(N)=O)NC(=O)[C@@H](NC(=O)CCOCCOCCOCCOCCC(=O)NCCNc2ncc(-c3cc(C)cc(F)c3)c(N3CCC(N)CC3)c2-c2nc3ccc(Cl)cc3[nH]2)C(C)C)cc1)C(C)C` [Compound 42] (X4-V[Cit][PABC][NMeV]V[Dil][Dolaproine]F-OH): the EC50 at SST2 amounted to 8.6 nM; in assay [1], 57.3 nM; in assay [2], 0.12 nM.

In the case of `CC[C@H](C)[C@@H]([C@@H](CC(=O)N1CCC[C@H]1[C@H](OC)[C@@H](C)C(=O)N[C@H](C)[C@@H](O)c1ccccc1)OC)N(C)C(=O)[C@@H](NC(=O)[C@H](C(C)C)N(C)C(=O)OCc1ccc(NC(=O)[C@H](CCCNC(N)=O)NC(=O)[C@@H](NC(=O)CCOCCNC(=O)CN2CCN(CC(=O)O)CCN(CC(=O)NCCOCCOCCOCCOCCC(=O)NCCNc3ncc(-c4cc(C)cc(F)c4)c(N4CCC(N)CC4)c3-c3nc4ccc(Cl)cc4[nH]3)CC2)C(C)C)cc1)C(C)C` [Compound 43], the figures for the concentration giving a half-maximal response (EC50) (on SST2; in assay [1]; in assay [2]) were 18.1 nM, 82.6 nM and 0.29 nM, respectively.

In the case of `CC[C@@H](C)[C@H]([C@H](CC(=O)N1CCC[C@@H]1[C@@H](OC)[C@H](C)C(=O)N[C@@H](C)[C@H](O)c1ccccc1)OC)N(C)C(=O)C(NC(=O)[C@@H](C(C)C)N(C)C(=O)OCc1ccc(NC(=O)[C@H](CCCNC(N)=O)NC(=O)[C@@H](NC(=O)CCOCCNC(=O)[C@H](CS(=O)(=O)O)NC(=O)CCOCCOCCOCCOCCC(=O)NCCNc2ncc(-c3cc(C)cc(F)c3)c(N3CCC(N)CC3)c2-c2nc3ccc(Cl)cc3[nH]2)C(C)C)cc1)C(C)C` (stereo partly drawn) [Compound 44], the results for the EC50 (at SST2; in assay [1]; in assay [2]) were 17.2 nM, 101 nM and 0.089 nM, respectively.

Regarding `CC[C@H](C)[C@@H]([C@@H](CC(=O)N1CCC[C@H]1[C@H](OC)[C@@H](C)C(=O)N[C@H](C)[C@@H](O)c1ccccc1)OC)N(C)C(=O)[C@@H](NC(=O)[C@H](C(C)C)N(C)C(=O)OCc1ccc(NC(=O)[C@H](CCCNC(N)=O)NC(=O)[C@@H](NC(=O)[C@H](CS(=O)(=O)O)NC(=O)CCOCCOCCOCCOCCC(=O)NCCNc2ncc(-c3cc(C)cc(F)c3)c(N3CCC(N)CC3)c2-c2nc3ccc(Cl)cc3[nH]2)C(C)C)cc1)C(C)C` [Compound 45], the concentration giving a half-maximal response (EC50) turned out to be 21 nM at SST2, 32 nM in assay [1] and 0.12 nM in assay [2].

As to `CC[C@H](C)[C@@H]([C@@H](CC(=O)N1CCC[C@H]1[C@H](OC)[C@@H](C)C(=O)N[C@H](C)[C@@H](O)c1ccccc1)OC)N(C)C(=O)[C@@H](NC(=O)[C@H](C(C)C)N(C)C(=O)OCc1ccc(NC(=O)[C@H](CCCNC(N)=O)NC(=O)[C@@H](NC(=O)CN2CCN(CC(=O)NCCOCCOCCOCCOCCC(=O)NCCNc3ncc(-c4cc(C)cc(F)c4)c(N4CCC(N)CC4)c3-c3nc4ccc(Cl)cc4[nH]3)CCN(CC(=O)NCCOCCOCCOCCOCCC(=O)NCCNc3ncc(-c4cc(C)cc(F)c4)c(N4CCC(N)CC4)c3-c3nc4ccc(Cl)cc4[nH]3)CC2)C(C)C)cc1)C(C)C` [Compound 46], the figures for the concentration for a half-maximal effect (EC50) (at SST2; in assay [1]; in assay [2]) were 26.1 nM, 85.9 nM and 0.54 nM, respectively.

Consider `CC[C@H](C)[C@@H]([C@@H](CC(=O)N1CCC[C@H]1[C@H](OC)[C@@H](C)C(=O)N[C@H](C)[C@@H](O)c1ccccc1)OC)N(C)C(=O)[C@@H](NC(=O)[C@H](C(C)C)N(C)C(=O)OCc1ccc(NC(=O)[C@H](CCCNC(N)=O)NC(=O)[C@@H](NC(=O)[C@H](CCC(=O)O)NC(=O)CCOCCOCCOCCOCCC(=O)NCCNc2ncc(-c3cc(C)cc(F)c3)c(N3CCC(N)CC3)c2-c2nc3ccc(Cl)cc3[nH]2)C(C)C)cc1C(=O)NCCN)C(C)C` [Compound 47], for which the figures for the 50% effective concentration (EC50) (at SST2; in assay [1]; in assay [2]) were 9 nM, 18.7 nM and 0.091 nM, respectively.

With `CC[C@H](C)[C@@H]([C@@H](CC(=O)N1CCC[C@H]1[C@H](OC)[C@@H](C)C(=O)N[C@H](C)[C@@H](O)c1ccccc1)OC)N(C)C(=O)[C@@H](NC(=O)[C@H](C(C)C)N(C)C(=O)OCc1ccc(NC(=O)[C@H](CCCNC(N)=O)NC(=O)[C@@H](NC(=O)CCOCCOCCOCCOCCC(=O)NCCNc2ncc(-c3cc(C)cc(F)c3)c(N3CCC(N)CC3)c2-c2nc3ccc(Cl)cc3[nH]2)C(C)C)cc1C(=O)NCCNC(=O)CCOCCOCCOCCOCCN)C(C)C` [Compound 48], the figures for the concentration giving a half-maximal response (EC50) (at SST2; in assay [1]; in assay [2]) were 6.9 nM, 12.4 nM and 0.26 nM, respectively.

With `CC[C@H](C)[C@@H]([C@@H](CC(=O)N1CCC[C@H]1[C@H](OC)[C@@H](C)C(=O)N[C@H](C)[C@@H](O)c1ccccc1)OC)N(C)C(=O)[C@@H](NC(=O)[C@H](C(C)C)N(C)C(=O)OCc1ccc(NC(=O)[C@H](CCCNC(N)=O)NC(=O)[C@@H](NC(=O)CCOCCOCCOCCOCCC(=O)NCCNc2ncc(-c3cc(C)cc(F)c3)c(N3CCC(N)CC3)c2-c2nc3ccc(Cl)cc3[nH]2)C(C)C)cc1C(=O)NCCN)C(C)C` [Compound 50], the EC50 at SST2 was determined as 7.7 nM; in assay [1] it was 5.8 nM; in assay [2], 0.15 nM.

With `CC[C@H](C)[C@@H]([C@@H](CC(=O)N1CCC[C@H]1[C@H](OC)[C@@H](C)C(=O)N[C@H](C)[C@@H](O)c1ccccc1)OC)N(C)C(=O)[C@@H](NC(=O)[C@H](C(C)C)N(C)C(=O)OCc1ccc(NC(=O)[C@H](CCCNC(N)=O)NC(=O)[C@@H](NC(=O)[C@H](CCC(=O)O)NC(=O)CCOCCC(=O)NCCNc2ncc(-c3cc(C)cc(F)c3)c(N3CCC(N)CC3)c2-c2nc3ccc(Cl)cc3[nH]2)C(C)C)cc1C(=O)NC)C(C)C` [Compound 51], the EC50 at SST2 stood at 6.3 nM; in assay [1] it was 130 nM; in assay [2], 0.22 nM.

In the case of `CC[C@H](C)[C@@H]([C@@H](CC(=O)N1CCC[C@H]1[C@H](OC)[C@@H](C)C(=O)N[C@H](C)[C@@H](O)c1ccccc1)OC)N(C)C(=O)[C@@H](NC(=O)[C@H](C(C)C)N(C)C(=O)OCc1ccc(NC(=O)[C@H](CCCNC(N)=O)NC(=O)[C@@H](NC(=O)[C@H](CCC(=O)O)NC(=O)CCOCCOCCOCCOCCC(=O)NCCNc2ncc(-c3cc(C)cc(F)c3)c(N3CCC(N)CC3)c2-c2nc3ccc(Cl)cc3[nH]2)C(C)C)cc1)C(C)C` [Compound 52], the concentration giving a half-maximal response (EC50) was 9.1 nM on SST2, 48 nM in assay [1] and 0.24 nM in assay [2].

Consider `CC[C@H](C)[C@@H]([C@@H](CC(=O)N1CCC[C@H]1[C@H](OC)[C@@H](C)C(=O)N[C@H](C)[C@@H](O)c1ccccc1)OC)N(C)C(=O)[C@@H](NC(=O)[C@H](C(C)C)N(C)C(=O)OCc1ccc(NC(=O)[C@H](CCCNC(N)=O)NC(=O)[C@@H](NC(=O)[C@H](CCC(=O)O)NC(=O)CCOCCOCCOCCOCCC(=O)NCCNc2ncc(-c3cc(C)cc(F)c3)c(N3CCC(N)CC3)c2-c2nc3ccc(Cl)cc3[nH]2)C(C)C)cc1C(=O)NC)C(C)C` [Compound 53], for which the half-maximal effective concentration (EC50) on SST2 worked out at 13 nM; in assay [1], 100 nM; in assay [2], 0.16 nM.

On to `CC[C@H](C)[C@@H]([C@@H](CC(=O)N1CCC[C@H]1[C@H](OC)[C@@H](C)C(=O)N[C@H](C)[C@@H](O)c1ccccc1)OC)N(C)C(=O)[C@@H](NC(=O)[C@H](C(C)C)N(C)C(=O)OCc1ccc(NC(=O)[C@H](CCCNC(N)=O)NC(=O)[C@@H](NC(=O)[C@H](CCC(N)=O)NC(=O)CCOCCC(=O)NCCNc2ncc(-c3cc(C)cc(F)c3)c(N3CCC(N)CC3)c2-c2nc3ccc(Cl)cc3[nH]2)C(C)C)cc1C(=O)NC)C(C)C` [Compound 54], for which the concentration for a half-maximal effect (EC50) was 10 nM on SST2, 17 nM in assay [1] and 0.17 nM in assay [2].

As to `CC[C@H](C)[C@@H]([C@@H](CC(=O)N1CCC[C@H]1[C@H](OC)[C@@H](C)C(=O)N[C@H](C)[C@@H](O)c1ccccc1)OC)N(C)C(=O)[C@@H](NC(=O)[C@H](C(C)C)N(C)C(=O)OCc1ccc(NC(=O)[C@H](CCCNC(N)=O)NC(=O)[C@@H](NC(=O)CN2CCN(CC(=O)O)CCN(CC(=O)NCCOCCC(=O)NCCNc3ncc(-c4cc(C)cc(F)c4)c(N4CCC(N)CC4)c3-c3nc4ccc(Cl)cc4[nH]3)CC2)C(C)C)cc1)C(C)C` [Compound 55], the 50% effective concentration (EC50) at SST2 came out at 8.3 nM; in assay [1], 35 nM; in assay [2], 0.17 nM.

In the case of `CC[C@H](C)[C@@H]([C@@H](CC(=O)N1CCC[C@H]1[C@H](OC)[C@@H](C)C(=O)N[C@H](C)[C@@H](O)c1ccccc1)OC)N(C)C(=O)[C@@H](NC(=O)[C@H](C(C)C)N(C)C(=O)OCc1ccc(NC(=O)[C@H](CCCNC(N)=O)NC(=O)[C@@H](NC(=O)[C@H](CCC(N)=O)NC(=O)CCOCCC(=O)NCCNc2ncc(-c3cc(C)cc(F)c3)c(N3CCC(N)CC3)c2-c2nc3ccc(Cl)cc3[nH]2)C(C)C)cc1)C(C)C` [Compound 56] (X1-QV[Cit][PABC][NMeV]V[Dil][Dolaproine]-X2), the EC50 was determined as 15.1 nM at SST2, 10.3 nM in assay [1] and 0.23 nM in assay [2].
